For this assay, the system named is 857933-349-R-J2-PDC complex spheroids, viability. The assay is described as follows: Anticancer human tumor 857933-349-R-J2-PDC patient-derived colon adenocarcinoma cell line growth inhibition [GQUAD]. Particulars: for viability, T/C: stronger effect = lower value; for IC50: curve of compound. The source says: DNA G-quadruplex Stabilizer Agents in Combinations in Complex Spheroids
A high-throughput screen of multi-cell type tumor spheroids was designed to identify active combinations of DNA G-quadruplex stabilizer agents and targeted small molecules. Complex spheroids include a stromal component modeled by human endothelial cells (HUVEC) and fibroblasts modeled by human mesenchymal stem cells (MSCs). The concentration ranges selected for each drug and investigational agent were based upon clinically achievable concentrations if the clinical Cmax of the agent was known.
Compounds. The drugs and investigational agents: pidnarulex (CX-5461; NSC782164), APTO-253 (NSC789042), BRACO-19 (NSC847499), peposertib (NSC802822), ceralasertib (NSC780249), elimusertib (NSC800525), camonsertib (NSC841442), AZD-1390 (NSC803789), olaparib (NSC753686), talazoparib (NSC767125), ART-558 (NSC835418), sotorasib (NSC818433), MRTX-1133 (NSC836407), SN-38 (NSC673596), topotecan (NSC609699), etoposide (NSC141540), doxorubicin (NSC123127), gemcitabine (NSC613327), 5-fluorouracil (NSC19893), paclitaxel (NSC125973), vemurafenib (NSC761431), panobinostat (NSC761190), R-306465 (JNJ-16241199; NSC773264), adavosertib (NSC754352), TP-3654 (NSC805149), carboplatin (NSC241240), KSQ-4279 (NSC840948), and staurosporine (NSC755774) were obtained from the National Cancer Institute (NCI) Developmental Therapeutics Program Chemical Repository (34). The FDA-approved anticancer drug set is available from the NCI Developmental Therapeutics Program. […] The stock solutions were prepared in dimethyl sulfoxide (DMSO, Sigma-Aldrich, St. Louis, MO, cat. D2650) at 800-fold the tested concentration and stored at -70 degrees C prior to their use. All drugs and investigational agents were tested over a range starting from a high concentration at or near the clinical Cmax and decreasing in half-log increments. If the clinical Cmax for an agent had not been determined, the highest concentration tested was 10 microM.
2.3 Cell Culture. All cells were maintained in an incubator at 37 degrees C and 5% CO2 with 95% humidity. The PDC lines were cultured according to standard operating procedures established by the NCI PDMR. All PDCs were thawed and cultured in Matrigel-coated flasks prepared with a working solution of 1X Ham's F-12 nutrient mix, without supplementation (Invitrogen, cat. 11765054), 100 U/mL penicillin-streptomycin (Invitrogen, cat. 15140122), and 2.5% Matrigel (Corning Inc., cat. 354248) for the first three passages. The 857933-349-R-J2-PDC line was cultured in 6C/Colon 1B media, which includes advanced DMEM/F-12 (Thermo Fisher Scientific, cat. 12634028), 10 mM HEPES (Thermo Fisher Scientific, cat. 15630080), 1X GlutaMAX supplement (Thermo Fisher Scientific, cat. 35050061), 0.1 mg/mL primocin (InvivoGen, cat. ant-pm-2), 10% defined fetal bovine serum, heat inactivated (HyClone Laboratories Inc., cat. SH30070.03HI), 50% L-WRN conditioned media (ATCC, cat. CRL-3276), 1.25 mM N-Acetyl-L-cysteine (Sigma-Aldrich, cat. A9165), 10 mM nicotinamide (Sigma-Aldrich, cat. N0636), 1X B-27 supplement (Thermo Fisher Scientific, cat. 17504044), 1X N-2 supplement (Thermo Fisher Scientific, cat. 17502048), 10 microM Y-27632 dihydrochloride (Tocris Bioscience, cat. 1254), and 50 ng/mL human EGF recombinant protein (Thermo Fisher Scientific, cat. PHG0311). The 485176-168-R4-J1-PDC line was cultured in Panc media, which includes all 6C/Colon 1B media components plus 100 ng/mL human FGF-10 (Thermo Fisher Scientific, cat. 100-26), 500 nM SB-431542 (Selleckchem, cat. S1067), and gastrin (Tocris, cat. 3006).
[…]

Where “and” joins values, the source holds several entries; their conditions need not be identical. Identical values can stand only once.

These results are taken from PubChem BioAssay AID2060491 (Molecular Pharmacology Branch, DTP, NCI, 2025).

In general, viability, T/C refers to the ratio of treated to control. By IC50 is commonly meant the point on the concentration scale where inhibition reaches its midpoint.
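Further: spheroids exposed to compounds for one week before readout.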
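Wherever viability, T/C is given: percent viability relative to vehicle DMSO wells taken as 100%.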

For the compound `C#Cc1c(F)ccc2cc(O)cc(-c3ncc4c(N5CC6CCC(C5)N6)nc(OCC56CCCN5CC(F)C6)nc4c3F)c12` (configuration not stated), the IC50 is more than 10000 nM. Moreover, where the note is “compound 0.0316 µM”, the viability, T/C is 94.6% and 101% and 111%. Further, the viability, T/C (compound 0.1 µM) is 93.3% and 94.7% and 99.7%. For the same compound, under “compound 0.316 µM”, the viability, T/C is 93.6% and 91.5% and 99.1%. For the same compound, under “compound 1 µM”, the viability, T/C is 69.2% and 83.1% and 96.8%. For the same compound, for the setting “compound 3.16 µM”, the viability, T/C was 75.5% and 70.2% and 97.1%. Besides, the viability, T/C (compound 10 µM) is 70% and 66.5% and 97.9%.

Take `C=CCn1c(=O)c2cnc(Nc3ccc(N4CCN(C)CC4)cc3)nc2n1-c1cccc(C(C)(C)O)n1`: the IC50 was 1640 nM and 1800 nM and 945 nM. In addition, where the note is “compound 0.0316 µM”, the viability, T/C was 102% and 105% and 106%. Further, for the setting “compound 0.1 µM”, the viability, T/C was 99.4% and 100% and 96.3%. The viability, T/C (compound 0.316 µM) was 95.1% and 97.1% and 97.4%. The viability, T/C (compound 1 µM) was 66.4% and 72.8% and 47.7%. Besides, the viability, T/C (compound 3.16 µM) is 26.8% and 27.4% and 8.15%. For the same compound, for the setting “compound 10 µM”, the viability, T/C was 28.5% and 27% and 10.6%.

Turning to `CC(C)(O)C1CCC(Nc2ccc3ncc(-c4cccc(C(F)(F)F)c4)n3n2)CC1` (configuration not stated), the 50% inhibitory concentration (IC50) was 734 nM and 803 nM and 519 nM. Also, the viability, T/C (compound 0.0316 µM) is 106% and 103% and 98.1%. The viability, T/C (compound 0.1 µM) was 94% and 102% and 87.3%. Moreover, the viability, T/C (compound 0.316 µM) is 89% and 96.2% and 80.1%. In addition, where the note is “compound 1 µM”, the viability, T/C is 36.2% and 39.3% and 10.5%. Moreover, the viability, T/C (compound 3.16 µM) is 2.72% and 3.1% and 0.35%. Also, the viability, T/C (compound 10 µM) was 2.99% and 3.23% and 0.57%.

As to `CCCS(=O)(=O)Nc1ccc(F)c(C(=O)c2c[nH]c3ncc(-c4ccc(Cl)cc4)cc23)c1F`, the IC50 is 5230 nM and 5490 nM and 5700 nM. For the same compound, the viability, T/C (compound 0.0316 µM) was 104% and 111% and 98.5%. Also, where the note is “compound 0.1 µM”, the viability, T/C is 97.2% and 102% and 92%. The viability, T/C (compound 0.316 µM) was 97.4% and 105% and 95.5%. Further, under “compound 1 µM”, the viability, T/C is 102% and 101% and 96.5%. Further, for the setting “compound 3.16 µM”, the viability, T/C is 84.9% and 90.6% and 95.8%. In addition, the viability, T/C (compound 10 µM) was 4.82% and 5.71% and 6.52%.

In the case of `COc1ncnc(C2CC2)c1-c1ncc2cnn(Cc3ccc(-c4nc(C(F)(F)F)cn4C(C)C)cc3)c2n1`, the IC50 is more than 10000 nM. Also, the viability, T/C (compound 0.0316 µM) is 101% and 105% and 104%. Moreover, under “compound 0.1 µM”, the viability, T/C is 92.3% and 102% and 96%. In addition, under “compound 0.316 µM”, the viability, T/C was 101% and 105% and 104%. Moreover, the viability, T/C (compound 1 µM) was 93.7% and 103% and 102%. Besides, the viability, T/C (compound 3.16 µM) was 104% and 99.2% and 97.6%. The viability, T/C (compound 10 µM) was 102% and 105% and 103%.

For the compound `O=C(NO)c1cnc(N2CCN(S(=O)(=O)c3ccc4ccccc4c3)CC2)nc1`, the IC50 was 1490 nM and 1480 nM and 570 nM. Also, the viability, T/C (compound 0.0316 µM) is 112% and 103% and 107%. Also, the viability, T/C (compound 0.1 µM) is 105% and 103% and 92.6%. Besides, the viability, T/C (compound 0.316 µM) was 104% and 103% and 82.3%. The viability, T/C (compound 1 µM) is 75.6% and 75% and 19.8%. In addition, the viability, T/C (compound 3.16 µM) was 0.92% and 0.99% and 0.08%. For the same compound, the viability, T/C (compound 10 µM) was 0.38% and 0.52% and 0.08%.
